Values quoted from earlier work as cited in US20100222262A1, “SUBSTITUTED 1, 3-CYCLOPENTADIONE ATTENUATED ENDOTHELIAL INFLAMMATION AND ENDOTHELIAL-MONOCYTE INTERACTIONS” (METAPROTEOMICS, LLC, priority 2008, published 2010).

system: 85 Kinases; conditions: not given

Compound	G10 (Gini coefficient)	hit rate (>50% Inhibition)
CC[C@H](CO)Nc1nc(NCc2ccccc2)c2ncn(C(C)C)c2n1 [Roscovitine]	0.744	10
C[S+]([O-])c1ccc(-c2nc(-c3ccncc3)c(-c3ccc(F)cc3)[nH]2)cc1 (stereo not drawn) [SB203580]	0.621	17

same assay, conditions: 85 kinases; Concn 0.001 uM

Compound	G10 (Gini coefficient)	hit rate (>50% Inhibition)
COc1cc2ncnc(Nc3cccc(Br)c3)c2cc1OC [PD153035]	0.616	0

same assay, conditions: 85 kinases; Concn 1 uM

Compound	G10 (Gini coefficient)	hit rate (>50% Inhibition)
O=C1Cc2c([nH]c3ccc([N+](=O)[O-])cc23)-c2ccccc2N1 [Alsterpaullone]	0.633	22
CCCCCCOC(=O)[C@]1(O)C[C@@H]2O[C@@]1(C)n1c3ccccc3c3c4c(c5c6ccccc6n2c5c31)C(=O)NC4 [KT5720]	0.423	33
O=C(O)c1cc(N(Cc2ccccc2O)Cc2cc(O)ccc2O)ccc1O [Lavendustin A]	0.726	0
O=C(O)c1cc(N(Cc2ccccc2O)Cc2ccccc2O)ccc1O [Lavendustin B]	0.515	0
CC(C)(C)n1nc(-c2ccc(Cl)cc2)c2c(N)ncnc21 [PP2]	0.722	14
Nc1ncnc2c1cnn2-c1ccccc1 [PP3]	0.634	0
Cn1cc(C2=C(c3cn(CCCSC(=N)N)c4ccccc34)C(=O)NC2=O)c2ccccc21 [Ro31-8220]	0.432	39
CN(C)S(=O)(=O)c1ccc2c(c1)/C(=C/c1cc3c([nH]1)CCCC3)C(=O)N2 [SU6656]	0.607	19
CN[C@@H]1C[C@H]2O[C@@](C)([C@@H]1OC)n1c3ccccc3c3c4c(c5c6ccccc6n2c5c31)C(=O)NC4 [Staurosporine]	0.093	–

same assay, conditions: 85 kinases; Concn 10 uM

Compound	G10 (Gini coefficient)	hit rate (>50% Inhibition)
N#CC(C#N)=Cc1ccc(O)c(O)c1 [AG18]	0.680	1
N#CC(C#N)=C(N)/C(C#N)=C/c1cc(O)c(O)c(O)c1 [AG183]	0.460	14
N#C/C(=C\c1ccc(O)c(O)c1)C(=O)c1ccc(O)c(O)c1 [AG538]	0.417	17
CC(C)(C)c1cc(C=C(C#N)C#N)cc(Br)c1O [AG1024]	0.568	11
COc1cc2ncc(-c3ccccc3)nc2cc1OC [AG1296]	0.498	4
COc1cc2ncnc(Nc3cccc(Cl)c3)c2cc1OC [AG1478]	0.500	25
O=C(O[C@@H]1Cc2c(O)cc(O)cc2O[C@@H]1c1cc(O)c(O)c(O)c1)c1cc(O)c(O)c(O)c1 [EGCG]	0.495	21
O=c1c(-c2ccc(O)cc2)coc2cc(O)cc(O)c12 [Genistein]	0.582	0
O=S(=O)(NCCNC/C=C/c1ccc(Br)cc1)c1cccc2cnccc12 [H89]	0.442	34
O=S(=O)(c1cccc2cnccc12)N1CCCNCC1 [HA1077]	0.650	19
CO[C@H]1[C@@H](OC)C[C@H](C)[C@@H](OC)C2=CC(=O)C=C(NC(=O)/C(C)=C/C=C\[C@H](OC)[C@@H](OC(N)=O)/C(C)=C/[C@@H]1C)C2=O [Herbimycin A]	0.534	0
O=c1cc(O)cc(/C=C/c2ccc(O)c(O)c2)o1 [Hispidin]	0.790	2
O=C1c2ccccc2-c2n[nH]c3cccc1c23 [JNK inh II]	0.445	35
O=C1NCc2c1c1c3ccccc3[nH]c1c1[nH]c3ccccc3c21 [K252c]	0.236	58
O=C(NOCC1CC1)c1ccc(F)c(F)c1Nc1ccc(I)cc1Cl [PD184352]	0.802	1
CC(=O)c1c(O)c(C)c(O)c(Cc2c(O)c3c(c(C(=O)/C=C/c4ccccc4)c2O)OC(C)(C)C=C3)c1O [Rottlerin]	0.595	3
Oc1ccc(-c2nc(-c3ccncc3)c(-c3ccc(F)cc3)[nH]2)cc1 [SB202190]	0.553	29
CCOc1cc(/C=C(\C#N)C(N)=O)cc(CSc2ccccc2)c1O [ST638]	0.568	14
C[C@@H](N)[C@H]1CC[C@H](C(=O)Nc2ccncc2)CC1 [Y27632]	0.628	13
Cc1ccc(NC(=O)c2cccc(N(C)C)c2)cc1NC(=O)c1ccc(O)cc1 [ZM336372]	0.635	11
Calphostin C	0.606	2

same assay, conditions: 85 kinases; Concn 50 uM

Compound	G10 (Gini coefficient)	hit rate (>50% Inhibition)
COc1cc(/C=C/C(=O)CC(=O)/C=C/c2ccc(O)c(OC)c2)ccc1O [Curcumin]	0.417	38
Cn1cnc2c(NCc3ccccc3)nc(NCCO)nc21 [Olomoucin]	0.556	13
